The text below walks through data of patent US20260285856A1, “A 1,5-DIHYDRO-4H-PYRROLO[3,2-C] PYRIDIN-4-ONE FOR USE IN THE TREATMENT OF CANCER” (ANTARES THERAPEUTICS, INC., priority 2023, published 2026).

What all share (type): cell-based
Experiment [1] concerns the target T1, EGFR exon 20 NPG Ins D770_N771 (Homo sapiens, UniProt P00533, INS770NPG).
T1 construct: expressed in transfected cells; host or cells: Ba/F3 (murine pro-B cells), retroviral transduction, puromycin selection, IL3 withdrawal
Nature of the experiment: Ba/F3 cell viability (CellTiter-Glo), EGFR exon 20 NPG insertion. The note with it: Ba/F3 cells expressing EGFR exon 20 NPG Ins D770_N771, 72 hours, read-out: BaF3 NPG IC50. The text has this:
(§1) Cell lines are generated by transducing Ba/F3 cells with retroviruses containing vectors with EGFR WT, EGFR exon 20 NPG Ins D770_N771, EGFR exon 20 ASV Ins V769_D770, EGFR exon 20 SVD Ins D770_N771, or EGFR exon 20 FQEA Ins A763_V764 genes and a puromycin selection marker. Transduced cells are selected with puromycin for 7 days and are then be transferred into culture media without Interleukin 3 (IL3). EGFR WT cells are maintained with supplemental EGF. Surviving cells are confirmed to express EGFR by Western blot and maintained as a pool. The IC50 data are included in Table 6.
(§2) • 1.1 Cells are harvested from flask into cell culture medium and the cell number counted. • 1.2 Cells are diluted with culture medium to the desired density and […] of cell suspension is added into each well of 384-well cell culture plate and the seeding density is 600 cells/well.
(§3) • 2.1 Test compounds are dissolved to 10 mM in a DMSO stock solution. […]
(§4) • 3.1 Plates are removed from incubators and equilibrated at room temperature for 15 minutes. • 3.2 Thaw the CellTiter Glo reagents and allow to equilibrate to room temperature before the experiment. • 3.3 Add 40 μL of CellTiter-Glo reagent into each well (at 1:1 to culture medium). Then place the plates at room temperature for 30 min followed by reading on EnVision.
(§5) • 4.1 Inhibition activity is calculated following the formula below: […]
(In ATP-based viability assays light output follows the ATP content of the culture.)

Experiment [2] has as its target T2, EGFR exon 20 ASV Ins V769_D770 (Homo sapiens, UniProt P00533, INS769ASV).
T2 construct: expressed in transfected cells; host or cells: Ba/F3 (murine pro-B cells), retroviral transduction, puromycin selection, IL3 withdrawal
Nature of the experiment: Ba/F3 cell viability (CellTiter-Glo), EGFR exon 20 ASV insertion. The note with it: Ba/F3 cells expressing EGFR exon 20 ASV Ins V769_D770, 72 hours, read-out: BaF3 ASV IC50.
Text: as §1, §2, §3, §4, §5

In experiment [3] the test system is EGFR mutant versus EGFR WT. Kind of experiment: EGFR mutant potency and selectivity against EGFR WT, compared with the enantiomer. The note with it: relative to its enantiomer (compound 635 in WO 2022/066734).
Text: as §1

For experiment [4], the target named is T3, EGFR exon 20 SVD Ins D770_N771 (Homo sapiens, UniProt P00533, INS770SVD).
T3 construct: expressed in transfected cells; host or cells: Ba/F3 (murine pro-B cells), retroviral transduction, puromycin selection, IL3 withdrawal
T3 sequence (P00533 with tags, fused parts or gaps INS770SVD): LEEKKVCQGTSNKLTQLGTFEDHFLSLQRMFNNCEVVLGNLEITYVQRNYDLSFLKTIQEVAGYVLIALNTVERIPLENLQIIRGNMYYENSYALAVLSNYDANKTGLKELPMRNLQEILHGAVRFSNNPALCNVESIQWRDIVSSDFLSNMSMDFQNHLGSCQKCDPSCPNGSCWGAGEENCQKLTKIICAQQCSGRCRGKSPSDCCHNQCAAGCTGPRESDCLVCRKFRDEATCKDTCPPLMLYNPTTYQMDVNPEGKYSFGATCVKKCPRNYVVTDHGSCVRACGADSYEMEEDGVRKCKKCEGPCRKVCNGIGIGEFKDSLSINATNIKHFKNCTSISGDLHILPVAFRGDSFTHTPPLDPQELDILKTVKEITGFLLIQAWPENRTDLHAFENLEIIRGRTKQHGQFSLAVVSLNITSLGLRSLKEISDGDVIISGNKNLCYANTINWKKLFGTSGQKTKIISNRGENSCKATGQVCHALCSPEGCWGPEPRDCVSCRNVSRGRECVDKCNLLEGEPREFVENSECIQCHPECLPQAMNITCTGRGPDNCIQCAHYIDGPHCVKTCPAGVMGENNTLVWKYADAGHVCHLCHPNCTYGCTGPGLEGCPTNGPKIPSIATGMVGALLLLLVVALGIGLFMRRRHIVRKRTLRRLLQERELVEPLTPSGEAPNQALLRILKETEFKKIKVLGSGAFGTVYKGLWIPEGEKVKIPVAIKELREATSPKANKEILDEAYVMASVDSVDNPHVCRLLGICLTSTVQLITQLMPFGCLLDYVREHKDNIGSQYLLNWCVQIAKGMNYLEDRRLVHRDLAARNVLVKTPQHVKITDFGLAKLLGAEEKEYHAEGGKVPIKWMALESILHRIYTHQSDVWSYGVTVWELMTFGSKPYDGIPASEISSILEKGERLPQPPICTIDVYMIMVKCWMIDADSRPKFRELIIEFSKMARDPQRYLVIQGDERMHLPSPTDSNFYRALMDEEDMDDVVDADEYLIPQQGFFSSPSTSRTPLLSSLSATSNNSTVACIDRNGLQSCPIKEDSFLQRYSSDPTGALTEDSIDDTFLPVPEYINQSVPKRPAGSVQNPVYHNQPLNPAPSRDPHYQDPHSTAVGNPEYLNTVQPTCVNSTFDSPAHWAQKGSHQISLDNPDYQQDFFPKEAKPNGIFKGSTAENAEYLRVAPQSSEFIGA
Nature of the experiment: Ba/F3 cell viability (CellTiter-Glo), EGFR exon 20 SVD insertion. The following applies: Ba/F3 cells expressing EGFR exon 20 SVD Ins D770_N771, 72 hours, read-out: BaF3 SVD IC50.
Text: as §1, §2, §3, §4, §5

Experiment [5] deals with T4, EGFR WT (Homo sapiens, UniProt P00533).
T4 construct: expressed in transfected cells; host or cells: Ba/F3 (murine pro-B cells), retroviral transduction; maintained with supplemental EGF
T4 sequence (P00533 25-1210): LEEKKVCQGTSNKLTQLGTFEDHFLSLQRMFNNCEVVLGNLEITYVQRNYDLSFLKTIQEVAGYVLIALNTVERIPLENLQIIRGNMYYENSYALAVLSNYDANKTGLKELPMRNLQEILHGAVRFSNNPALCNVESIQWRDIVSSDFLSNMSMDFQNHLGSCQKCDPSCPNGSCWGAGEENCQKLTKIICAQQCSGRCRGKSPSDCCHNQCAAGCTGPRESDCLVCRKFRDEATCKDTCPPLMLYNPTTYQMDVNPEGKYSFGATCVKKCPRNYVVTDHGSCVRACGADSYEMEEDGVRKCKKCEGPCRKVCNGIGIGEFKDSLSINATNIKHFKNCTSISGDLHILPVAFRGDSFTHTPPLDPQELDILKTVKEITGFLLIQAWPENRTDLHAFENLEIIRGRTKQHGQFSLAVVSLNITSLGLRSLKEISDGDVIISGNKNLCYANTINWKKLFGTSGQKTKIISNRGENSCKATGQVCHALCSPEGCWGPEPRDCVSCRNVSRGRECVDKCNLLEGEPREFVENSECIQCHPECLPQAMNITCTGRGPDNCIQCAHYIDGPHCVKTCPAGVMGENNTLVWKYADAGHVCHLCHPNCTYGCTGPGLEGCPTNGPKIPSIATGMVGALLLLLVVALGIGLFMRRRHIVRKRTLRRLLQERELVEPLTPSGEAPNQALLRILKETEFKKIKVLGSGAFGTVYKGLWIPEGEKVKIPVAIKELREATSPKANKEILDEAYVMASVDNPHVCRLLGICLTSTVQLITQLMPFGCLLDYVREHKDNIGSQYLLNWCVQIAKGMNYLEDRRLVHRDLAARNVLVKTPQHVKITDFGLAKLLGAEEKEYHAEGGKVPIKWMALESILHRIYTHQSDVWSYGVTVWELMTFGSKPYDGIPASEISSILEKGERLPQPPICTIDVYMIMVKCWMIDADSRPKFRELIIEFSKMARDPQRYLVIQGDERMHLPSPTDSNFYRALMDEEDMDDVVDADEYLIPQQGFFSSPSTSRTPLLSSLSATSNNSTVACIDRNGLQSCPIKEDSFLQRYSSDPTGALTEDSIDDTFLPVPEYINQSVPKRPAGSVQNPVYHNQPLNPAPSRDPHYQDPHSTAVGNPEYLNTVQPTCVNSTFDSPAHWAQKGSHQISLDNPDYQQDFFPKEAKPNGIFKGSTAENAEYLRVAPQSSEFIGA
Kind of experiment: Ba/F3 cell viability (CellTiter-Glo), EGFR WT. The note with it: Ba/F3 cells expressing EGFR WT, supplemental EGF, 72 hours, read-out: BaF3 WT IC50.
Text: as §1, §2, §3, §4, §5

In experiment [6] the target is EGFR phosphorylation (pEGFR) in CUTO14 cells (Homo sapiens, UniProt P00533, INS769ASV). Kind of experiment: EGFR phosphorylation (pEGFR) AlphaLISA in CUTO14 cells. The following applies: 2 hours. The text has this:
EGFR mutant Ba/F3 cells were generated by transduction with retrovirus containing vectors expressing EGFR exon 20 NPG Ins D770_N771, EGFR exon 20 ASV Ins V769_D770, or EGFR exon 20 SVD Ins D770_N771 genes along with a puromycin selection marker. Transduced cells are selected with puromycin for 7 days and are then be transferred into culture media without Interleukin 3 (IL3). Surviving cells are confirmed to express EGFR by Western blot and maintained as a pool. CUTO14 cells were obtained from Dr. Robert C. Doebele at the University of Colorado. The IC50 data are included in Table 6.
• 1.1 Cells are harvested from flask into cell culture medium and the cell number counted. • 1.2 Cells are diluted with culture medium to the desired density and 40 μL of cell suspension is added into each well of 384-well cell culture plate and the seeding density is 50K cells/well (Ba/F3) or 12.5K cells/well (CUTO14).
• 2.1 Test compounds are dissolved to 10 mM in a DMSO stock solution. 45 μL of stock solution is transferred to a 384 polypropylene plate (pp-plate). […] Mix well on the shaker, seal and wrap in aluminum foil and incubate 1.5 hrs at room temperature in the dark • 3.5 Transfer 18.5 μL mixture to OptiPlate 384, and read using an Envision.
(Bead proximity is the source of the signal in Alpha formats.)

T2 sequence (P00533 with tags, fused parts or gaps INS769ASV): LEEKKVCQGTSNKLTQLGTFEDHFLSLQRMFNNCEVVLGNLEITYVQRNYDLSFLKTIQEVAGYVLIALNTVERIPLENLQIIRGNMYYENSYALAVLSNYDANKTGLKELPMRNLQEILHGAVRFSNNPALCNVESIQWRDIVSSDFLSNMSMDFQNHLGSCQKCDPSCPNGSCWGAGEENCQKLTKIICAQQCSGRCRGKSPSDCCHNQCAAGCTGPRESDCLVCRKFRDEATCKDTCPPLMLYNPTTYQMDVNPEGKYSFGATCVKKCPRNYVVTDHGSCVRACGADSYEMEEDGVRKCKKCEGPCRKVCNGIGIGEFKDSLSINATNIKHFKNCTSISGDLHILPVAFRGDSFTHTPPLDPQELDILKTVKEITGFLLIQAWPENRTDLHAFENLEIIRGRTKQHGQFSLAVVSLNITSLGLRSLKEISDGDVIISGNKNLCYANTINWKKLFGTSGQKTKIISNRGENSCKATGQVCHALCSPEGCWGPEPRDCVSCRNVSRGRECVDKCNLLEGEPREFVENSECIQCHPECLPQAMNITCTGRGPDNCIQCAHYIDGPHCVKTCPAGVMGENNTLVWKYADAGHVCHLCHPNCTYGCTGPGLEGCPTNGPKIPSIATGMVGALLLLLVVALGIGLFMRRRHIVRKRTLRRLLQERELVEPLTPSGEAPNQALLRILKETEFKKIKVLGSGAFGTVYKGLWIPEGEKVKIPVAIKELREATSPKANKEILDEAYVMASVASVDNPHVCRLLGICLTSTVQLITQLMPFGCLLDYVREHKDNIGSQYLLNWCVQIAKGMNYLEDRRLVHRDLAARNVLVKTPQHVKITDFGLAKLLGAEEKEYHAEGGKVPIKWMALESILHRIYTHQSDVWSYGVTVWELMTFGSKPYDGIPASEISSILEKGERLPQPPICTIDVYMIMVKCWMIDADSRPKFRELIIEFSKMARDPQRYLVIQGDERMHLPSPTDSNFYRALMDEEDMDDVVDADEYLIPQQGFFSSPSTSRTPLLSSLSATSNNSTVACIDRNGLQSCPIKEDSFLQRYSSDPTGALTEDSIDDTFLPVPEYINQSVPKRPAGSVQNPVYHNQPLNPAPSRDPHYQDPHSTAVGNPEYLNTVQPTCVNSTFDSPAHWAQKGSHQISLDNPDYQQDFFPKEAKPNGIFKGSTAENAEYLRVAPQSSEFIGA
Chain of EGFR phosphorylation (pEGFR) in CUTO14 cells (P00533 with tags, fused parts or gaps INS769ASV): as above

`COc1c(Cl)cccc1Nc1c(-c2ccncc2C#C[C@@]2(C)CCCN2C(=O)/C=C/CN(C)C)[nH]c2cc[nH]c(=O)c12` [(I), 3-[(3-chloro-2-methoxyphenyl)amino]-2-(3-{2-[(2R)-1-[(2E)-4-(dimethylamino)but-2-enoyl]-2-methylpyrrolidin-2-yl]ethynyl}pyridin-4-yl)-1H,5H-pyrrolo[3,2-c]pyridin-4-one]: the IC50 (usually the concentration that gives 50% inhibition) in experiment [1] was less than 100 nM; in experiment [2], less than 100 nM; in experiment [4] it was less than 100 nM; in experiment [5], not below 1000 nM; in experiment [6] it was less than 100 nM. Besides, the “EGFR mutant potency and selectivity against EGFR WT” value in experiment [3] is “greater than the potency and selectivity exhibited by its enantiomer”.
